For data set [1] the following is noted: cited from earlier work.
A short description of data set [2]: pH of zirconium oxychloride / arginine solutions. The conditions noted are these: 1% zirconium oxychloride with varied arginine, 10 g samples, incubated 1 day at 50° C., cooled to room temperature. The data set is classed as physicochemical. How it is done: Samples were prepared according to Table 1. Water was added to zirconium oxychloride (ZrOCl2.8H2O, MW 322.25) in a glass jar to yield a clear solution containing 1% zirconium oxychloride. Under stirring, L-arginine was slowly added to prevent clumping of arginine as well as large fluctuations in localized pH values. The solutions were incubated for 1 day at 50° C. Then the solutions were cooled to room temperature. Solid gel was formed in samples with the molar ratio of arginine to zirconium oxychloride of 2-4.
A 100 g batch was prepared according to Table 2. 1% w/w zirconium oxychloride (ZrOCl2.8H2O, MW 322.25) and arginine were mixed in aqueous solution with the molar ratio of arginine to zirconium oxychloride of 1:1.
The zirconium oxychloride cluster was prepared as described in Example 1. The prepared zirconium oxychloride cluster was purified by gel permeability chromatograph (GPC). GPC column was prepared using Bio-Rad P2 gel with 5 μm particle size. Approximately 10 mL of prepared solution was filtered (0.45 μm) and loaded on the column using a HPLC pump at 0.2 mL/min. The mobile phase of the GPC chromatography was deionized water. Elution fractions were collected in intervals and monitored using SEC-RI. […] The pH of the GPC fraction (1160-1300 min) was 4.5. […] 10 g of this fraction was freeze dried to obtain purified powder for subsequent PXRD analysis.

For `[Cl-].[Cl-].[O]=[Zr+2]` [Zr, zirconium oxychloride], the pH of solution result in data set [1] (solution of zirconium oxychloride which is effective as an antiperspirant (background)) is recorded as “about 0.8”. In data set [1] (zirconium oxychloride alone (general statement)), the pH value was less than 2. In data set [2], this compound came in with a pH of 1.39.

The values above are taken from US11918667B2, “Zirconium-based cluster as an antiperspirant and deodorant active” (Colgate-Palmolive Company, priority 2017, dated 2024).
